According to PubChem BioAssay AID1438 (Sanford-Burnham Center for Chemical Genomics, 2008):

Molecular target: Runt-related transcription factor 1 (Homo sapiens) + Core-binding factor subunit beta (Homo sapiens) (UniProt Q01196+Q13951)
Assay: Runt domain/CBFb-SMMHC interaction disruptors – biochemical, TR-FRET (AID 1438)

Runt-related transcription factor 1 (Homo sapiens) + Core-binding factor subunit beta (Homo sapiens), sequence (Q01196 whole entry, looked up, the tested form may be a part): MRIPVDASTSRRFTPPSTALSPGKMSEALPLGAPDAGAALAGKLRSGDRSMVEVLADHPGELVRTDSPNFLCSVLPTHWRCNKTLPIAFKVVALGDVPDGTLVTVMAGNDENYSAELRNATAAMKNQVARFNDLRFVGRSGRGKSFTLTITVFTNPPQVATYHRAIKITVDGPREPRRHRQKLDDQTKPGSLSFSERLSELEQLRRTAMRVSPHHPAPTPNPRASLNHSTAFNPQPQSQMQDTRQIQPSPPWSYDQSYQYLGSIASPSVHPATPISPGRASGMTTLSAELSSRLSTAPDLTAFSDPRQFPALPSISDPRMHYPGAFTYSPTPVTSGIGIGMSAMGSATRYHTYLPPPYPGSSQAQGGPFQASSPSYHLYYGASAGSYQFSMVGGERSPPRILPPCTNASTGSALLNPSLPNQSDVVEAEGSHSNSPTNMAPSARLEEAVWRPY
Runt-related transcription factor 1 (Homo sapiens) + Core-binding factor subunit beta (Homo sapiens), sequence (Q13951 whole entry, looked up, the tested form may be a part): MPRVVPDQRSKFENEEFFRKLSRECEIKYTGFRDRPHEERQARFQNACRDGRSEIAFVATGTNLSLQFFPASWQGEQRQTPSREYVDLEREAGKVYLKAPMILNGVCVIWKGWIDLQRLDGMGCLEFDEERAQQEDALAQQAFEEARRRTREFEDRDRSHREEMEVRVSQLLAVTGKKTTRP

For `CN1CCc2cccc3c2[C@@H]1Cc1ccc(O)c(O)c1-3`, the IC50 was 7.12 µM.
